The test system of experiment [1] is PBMC from FIV-vaccinated cats. As to the kind of experiment: Feline IFNγ ELISpot of PBMC from vaccinated cats. To be noted: for IFNγ, frequency of responders: FIV peptides, FIV-vaccinated cats (prototype dual-subtype vaccine). The format is cell-based, cat. As for the experimental part:
(§1) IFNγ and IL2 ELISpot analyses were performed using feline IFNγ ELISpot and feline IL2 ELISpot kits (R&D Systems, Cat# SEL764 and SEL1890) as described. The threshold is defined as ≥50 spot forming units (SFU) per 1×10^6 PBMC when counted with MVS ELISpot Reader (MVS Pacific, LLC). Each result is an average of the duplicate samples after subtraction of the average value of the media controls.
(§2) Concurrently, the overlapping peptide pools of FIV structural/enzyme proteins were used to stimulate PBMC and T cells from FIV-vaccinated cats. These cats were vaccinated with prototype dual-subtype FIV vaccine which was the prototype to our commercial FIV vaccine (Coleman et al., 2014). The feline assays (Example 1) equivalent to those of human assays (Sanou et al., 2013; Roff et al., 2015) were used except for ICS analysis. In place of ICS for cytolysin/cytotoxins, IL2 ELISpot analysis was performed. […] The results for FIV-vaccinated cats included IFNγ and IL2 productions and CD3^+CD4+ and CD3^+CD8^+ T-cell proliferation (Table 9, the second set of results).
(§3) The feline IFNγ and L2 ELISpot analyses of PBMC to FIV MAPs and peptides were performed as previously described (Abbott et al. (2012)) using feline IFNγ modular kit (R&D Systems, Minneapolis, Minn.) and feline IL2 modular kit (R&D Systems). All results shown in the figures (FIGS. 8A-1, 8B-1, 8A-2, 8B-2, 8A-3, 8B-3) are after subtracting the average value of the results from all control cats.
(§4) The second parameter evaluated was the ability of the peripheral blood mononuclear cells (PBMC) from vaccinated and control cats to produce IL2 and interferon-γ (IFNγ) proteins in responses to FIV MAPs and peptides (FIGS. 8A-1, 8A-2, 8A-3, 8B-1, 8B-2, 8B-3) using feline IL2 and IFNγ ELISpot assays (Aranyos et al. (2016); Abbott et al. (2012)). IL2 enhances the proliferation of FIV-specific CD4^+ T cells and CD8^+ T cells. IFNγ is known enhance the FIV-specific CTL activities in vaccinated cats (Abbas et al. (2015)).

Experiment [2] has as its system PBMC from FIV-vaccinated cats. As to the kind of experiment: Feline IL2 ELISpot of PBMC from vaccinated cats. To be noted: FIV peptides. The format is cell-based, cat. The method, then: as §1, §2, §3, §4
Experiment [3] has as its system feline CD3^+CD4^+ T cells. Description: CFSE-based feline CD3+CD4+ T-cell proliferation. To be noted: FIV peptides; FIV-vaccinated cats. Also noted: species or system cat. As for the experimental part:
(§5) Carboxyfluorescein diacetate succinimide ester (CFSE)-proliferation was performed according to the manufacturer's protocol (Invitrogen, Grand Island, N.Y.) and processed using a previously described modification. The modification consisted of 2.5×10^5 CFSE-labeled feline PBMC stimulated for 5 days (37° C., 5% CO2) with 4 μg/mL peptide in culture media (RPMI medium 25 µg/mL gentamycin, and 10% heat-inactivated fetal bovine serum (FBS)). Peptide pools consisted of 3-5 overlapping peptides of 4 μg/mL each. The antibodies used for flow cytometry based proliferation analysis consisted of murine anti-feline (Fe) CD3 monoclonal antibody (MAb clone kindly provided by Drs. Yorihiro Nishimura and Takayuki Miyazawa; described in [32]) combined with secondary goat anti-mouse IgG3-APC/CY7 MAb (SouthernBiotech, Birmingham, Ala.; Cat#1100-19); and murine anti-FeCD4-PE MAb (SouthernBiotech, Cat#8130-09); and murine anti-FeCD8 MAb (MAb clone kindly provided by Dr. Nazareth Gengozian, described in [33]) with secondary goat anti-mouse IgG2a-PE/CY7 (Southern Biotech, Cat#1080-17). The murine anti-B220-APC MAb for detecting feline B cells (SouthernBiotech, Cat#1665-11) and previously described MAbs for CFSE were used for FACS phenotyping. Both FACS phenotyping and CFSE-proliferation analyses were performed with BD LSRII and FACSDiva™ Software (BD Biosciences, San Jose, Calif.). The final value for each sample was derived after subtraction of the average value of the media controls using a positive threshold of ≥1 CFSE^low.
as §2
(§6) Carboxyfluorescein diacetate succinimide ester (CFSE)-proliferation analysis was according to the manufacturer's protocol (Invitrogen-Fisher, Carlsbad, Calif.) and processed as previously described (Roff et al. (2015)) using the following modifications: anti-feline CD3 antibody ((clone NZM1), a generous gift from T. Miyazawa (Univ. of Tokyo, Japan)) in combination with APC-conjugated anti-mouse IgG3 (Southern Biotech, Birmingham, Ala.), PE-conjugated anti-feline CD4 antibody (Southern Biotech), and anti-feline CD8 antibody (gift from N. Gengozian, University of Tennessee (Gengozian et al. (1997))) in combination with PE/Cy7-conjugated anti-mouse IgG2b (Southern Biotech) to detect the proliferation of feline CD3^+CD4+ T cells and feline […]. All results shown in the figures (FIGS. 7A-1, 7B-1, 7A-2, 7B-2, 7A-3, 7B-3) are after subtracting the average value of each results from all control cats. The threshold of CFSE proliferation is ≥0.5 CFSE^low. […]

For experiment [4], the system named is feline CD3^+CD8^+ T cells. As to the kind of experiment: CFSE-based feline CD3+CD8+ T-cell proliferation. The arrangement: species or system cat. To be noted: for CD8^+ T (T-cell proliferation), frequency of responders: FIV peptides. The method, then: as §5, §2, §6
For the next experiment, the system named is FIVFC1. As to the kind of experiment: FIV enhancement and suppression (E/S) analysis of in vitro FIV infection of feline PBMC. The format is cell-based, feline immunodeficiency virus. Particulars: FIV peptides; in vitro FIV infection of uninfected cat PBMC. As for the experimental part: FIV viral enhancement or suppression was determined using a 48-well modification of the method described for detecting FIV enhancing activity of IFNγ and FIV suppressive activity of IFNα [37]. […] MAP1c contained four branched chains of peptide Fp4-3. T-cell mitogen concanavalin A (ConA) at 4 μg/mL was used as an infection enhancing control. Six hours after the culturing with peptide, MAP, or ConA, varying dilutions of FIVFC1 were added to the wells. Seventy-two hours later the cells were re-cultured in fresh culture media with ConA-stimulated autologous PBMC (0.25-0.5×10^6) using the same amount of corresponding peptide, MAP, ConA or media. On Day 7, 10, and 13 of culture, 0.5 mL of culture fluid was collected and 0.5 mL of fresh media added to maintain a consistent volume. The harvested culture samples were analyzed for FIV titer using the previously described RT assay. The results are shown as the end-point dilution titer from two studies using PBMC from different SPF donors.
Statistical analysis. The statistically significant differences between the end-point dilution titers of the peptide or MAP culture samples and either the virus control samples or specific MAP culture samples were calculated using a paired Student t-test with a two-tailed distribution (SigmaPlot version 11.0). Statistical comparisons between pre and post-vaccination(s) were similarly performed. The comparison was considered statistically significant when p<0.05.

Setting [5] is: cats of Group 1, MAP Vaccine Trial 1 (FIG. 3).

Regarding KKKSGKWRLIDFRVLNKL [FRT3-3/4], the “IFNγ, frequency of responders” value in experiment [1] is listed as “+++ (40.1%-54% (+++))”. The sequence also registered an IFNγ production in experiment [1] (setting [5]) of 531 SFU/10^6 PBMC. Also, in experiment [2], the “IL2, frequency of responders” value is “++++ (>54% (++++))”. In addition, the “CDC4^+ T (T-cell proliferation), frequency of responders” value in experiment [3] is “— (0%-1.4%(—))”. The “CD8^+ T (T-cell proliferation), frequency of responders” value in experiment [4] (FIV-vaccinated cats) is “+++ (40.1%-54% (+++))”. In addition, in experiment [4] (FIV-vaccinated cats, in vitro analyses (Table 9)), the “Responder frequency in CD8+ T-cell proliferation” value is 44.4%. Further, the “% CD8+ T-cell CFSE^low over % CD4+ T-cell CFSE^low ratio (CD8/CD4 response ratio)” value in experiment [4] (setting [5]) is recorded as 9. Besides, the “FIV Test E/S (enhancer/suppressor analysis)” value with FIVFC1 was “↓”.
As to “RAWYLEALGKLAAIKAK [Fp10-2/3, overlapping peptide of MAP6]”, the “IFNγ, frequency of responders” value in experiment [1] is recorded as “— (0%-1.4%(—))”. Moreover, the “IL2, frequency of responders” value in experiment [2] is “+++ (40.1%-54% (+++))”. For the same sequence, the “CDC4^+ T (T-cell proliferation), frequency of responders” value in experiment [3] is listed as “— (0%-1.4%(—))”. Also, the “CD8^+ T (T-cell proliferation), frequency of responders” value in experiment [4] (FIV-vaccinated cats) is on record as “— (0%-1.4%(—))”. Also, the “FIV Test E/S (enhancer/suppressor analysis)” value with FIVFC1 was “↓”.

For the origin of these results see patent publication US10758609B2, “Cross-reactive T-cell epitopes of HIV, SIV, and FIV for vaccines in humans and cats” (priority 2015, dated 2020).
